In the first test the target is T1, c-kit (Homo sapiens, UniProt P10721).
T1 construct: human Mo7e cells which endogenously express c-kit; endogenous in cells; host or cells: human Mo7e cells (promegakaryocytic leukemia line), stimulated with human recombinant SCF
T1 sequence (P10721 26-976): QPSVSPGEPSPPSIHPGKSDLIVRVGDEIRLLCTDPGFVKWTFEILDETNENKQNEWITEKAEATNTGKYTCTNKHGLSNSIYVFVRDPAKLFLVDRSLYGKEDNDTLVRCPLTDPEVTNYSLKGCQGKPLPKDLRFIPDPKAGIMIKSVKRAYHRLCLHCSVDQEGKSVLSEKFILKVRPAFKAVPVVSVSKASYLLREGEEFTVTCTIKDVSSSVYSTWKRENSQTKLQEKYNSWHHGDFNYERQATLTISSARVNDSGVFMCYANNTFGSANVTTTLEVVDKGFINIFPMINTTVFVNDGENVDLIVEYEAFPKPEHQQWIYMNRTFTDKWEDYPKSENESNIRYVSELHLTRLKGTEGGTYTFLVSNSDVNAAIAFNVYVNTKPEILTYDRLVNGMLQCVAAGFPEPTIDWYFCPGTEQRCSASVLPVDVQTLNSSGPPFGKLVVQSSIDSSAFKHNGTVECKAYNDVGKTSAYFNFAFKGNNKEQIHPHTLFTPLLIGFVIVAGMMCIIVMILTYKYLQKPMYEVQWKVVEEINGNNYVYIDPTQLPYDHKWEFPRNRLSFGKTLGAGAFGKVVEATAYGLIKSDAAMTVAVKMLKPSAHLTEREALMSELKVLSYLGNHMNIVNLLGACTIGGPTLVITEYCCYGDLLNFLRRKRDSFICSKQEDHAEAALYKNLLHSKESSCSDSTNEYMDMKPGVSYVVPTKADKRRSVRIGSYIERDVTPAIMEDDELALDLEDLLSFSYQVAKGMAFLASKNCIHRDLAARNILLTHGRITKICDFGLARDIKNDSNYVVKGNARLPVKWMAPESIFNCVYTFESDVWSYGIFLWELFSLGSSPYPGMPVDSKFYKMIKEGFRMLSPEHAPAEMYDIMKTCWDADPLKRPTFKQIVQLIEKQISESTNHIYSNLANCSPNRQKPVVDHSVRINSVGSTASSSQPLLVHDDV
The experiment in a line: Mo7e cell proliferation assay (SCF dependent proliferation). The conditions noted are these: Table 1; Mo7e cells stimulated with human recombinant SCF, 48 hours; 1% FBS. The test is classed as cell-based. How it is done:
Compounds of Formula (I) and Formula (II) provided herein were assayed to measure their capacity to inhibit c-kit and PDGFR kinases using the appropriate assay described below: c-Kit inhibition was evaluated using the Mo7e cell proliferation assay, and PDGFR inhibition was evaluated using the Rat A10 cell proliferation assay and the Human TG/HA-VSMC cell proliferation assay.
The compounds of Table 1 and Table 2 were tested for inhibition of SCF dependent proliferation using human Mo7e cells which endogenously express c-kit in a 384 well format. […] After 48 hours of incubation at 37° C., cell viability was measured by adding 25 uL of CellTiter Glo (Promega) to the cells and the luminescence was measured by a CLIPR CCD camera (Molecular Devices).
The IC50 value is given as that concentration of the test compound in question that provoke a response halfway between the baseline and maximum responses.
Take `Cc1nc(C(F)(F)F)c(-c2nc(-c3ccc(C)c(NC(=O)c4cnc5ccccn45)c3)no2)s1` [F23, N-(2-methyl-5-{5-[2-methyl-4-(trifluoromethyl)-1,3-thiazol-5-yl]-1,2,4-oxadiazol-3-yl}phenyl)imidazo[1,2-a]pyridine-3-carboxamide]: the IC50 was found to be 61 nM.

For `Cc1ccc(-c2nc(Nc3ccccc3)no2)cc1NC(=O)c1cnc2ccccn12` [F1, N-(2-methyl-5-(3-(phenylamino)-1,2,4-oxadiazol-5-yl)phenyl)imidazo[1,2-a]pyridine-3-carboxamide], the IC50 came to 51 nM.

Turning to `Cc1ccc(Nc2noc(-c3cnccn3)n2)cc1NC(=O)c1cnc2ccccn12` [F18, N-(2-methyl-5-{[5-(pyrazin-2-yl)-1,2,4-oxadiazol-3-yl]amino}phenyl)imidazo[1,2-a]pyridine-3-carboxamide], the IC50 amounted to 9 nM.

On to `Cc1ccc(Nc2noc(-c3cccc(N4CCOCC4)c3)n2)cc1NC(=O)c1cnc2ccccn12` [F14, N-[2-methyl-5-({5-[3-(morpholin-4-yl)phenyl]-1,2,4-oxadiazol-3-yl}amino)phenyl]imidazo[1,2-a]pyridine-3-carboxamide], for which the IC50 came to 29 nM.

For `Cc1ccc(Nc2noc(-c3ccnc(N4CCOCC4)c3)n2)cc1NC(=O)c1cnc2ccccn12` [F12, N-[2-methyl-5-({5-[2-(morpholin-4-yl)pyridin-4-yl]-1,2,4-oxadiazol-3-yl}amino)phenyl]imidazo[1,2-a]pyridine-3-carboxamide], the IC50 was 40 nM.

Regarding `Cc1ccnc(-c2noc(-c3ccc(C)c(NC(=O)c4cnc5ccccn45)c3)n2)c1` [F10, N-{2-methyl-5-[3-(4-methylpyridin-2-yl)-1,2,4-oxadiazol-5-yl]phenyl}imidazo[1,2-a]pyridine-3-carboxamide], the IC50 came out at 24 nM.

As to `Cc1ccc(-c2noc(-c3ccccn3)n2)cc1NC(=O)c1cnc2ccccn12` [F11, N-(2-methyl-5-(5-(pyridin-2-yl)-1,2,4-oxadiazol-3-yl)phenyl)imidazo[1,2-a]pyridine-3-carboxamide], the IC50 worked out at 75 nM.

On to `Cc1ccc(Nc2noc(-c3cccc(N4CCN(C)CC4)c3)n2)cc1NC(=O)c1cnc2ccccn12` [F13, N-[2-methyl-5-({5-[3-(4-methylpiperazin-1-yl)phenyl]-1,2,4-oxadiazol-3-yl}amino)phenyl]imidazo[1,2-a]pyridine-3-carboxamide], for which the 50% inhibitory concentration (IC50) stood at 71 nM.

On to `Cc1ccc(Nc2noc(-c3nccn3C)n2)cc1NC(=O)c1cnc2ccccn12` [F16, N-(2-methyl-5-{[5-(1-methyl-1H-imidazol-2-yl)-1,2,4-oxadiazol-3-yl]amino}phenyl)imidazo[1,2-a]pyridine-3-carboxamide], for which the concentration for half-maximal inhibition (IC50) was found to be 27 nM.

As to `Cc1ccc(Nc2noc(-c3ccccc3)n2)cc1NC(=O)c1cnc2ccccn12` [F20, N-{2-methyl-5-[(5-phenyl-1,2,4-oxadiazol-3-yl)amino]phenyl}imidazo[1,2-a]pyridine-3-carboxamide], the IC50 was determined as 10 nM.

On to `Cc1ccc(Nc2noc(-c3ccccn3)n2)cc1NC(=O)c1cnc2ccccn12` [F21, N-(2-methyl-5-{[5-(pyridin-2-yl)-1,2,4-oxadiazol-3-yl]amino}phenyl)imidazo[1,2-a]pyridine-3-carboxamide], for which the IC50 amounted to 8 nM.

The test is the same for the next values; noted with them: Table 1; Mo7e cells stimulated with human recombinant SCF, 48 hours; 20% FBS (values marked *).
Turning to `Cc1ccc(-c2nc(Cc3ccccc3)no2)cc1NC(=O)c1cnc2ccccn12` [F3, N-[5-(3-benzyl-1,2,4-oxadiazol-5-yl)-2-methylphenyl]imidazo[1,2-a]pyridine-3-carboxamide], the IC50 was 65 nM.

Consider `Cc1ccc(-c2nc(-c3ccc4c(c3)CCO4)no2)cc1NC(=O)c1cnc2ccccn12` [F5, N-{5-[3-(2,3-dihydro-1-benzofuran-5-yl)-1,2,4-oxadiazol-5-yl]-2-methylphenyl}imidazo[1,2-a]pyridine-3-carboxamide], for which the IC50 was found to be 73 nM.

Staying with this test, now noted: Table 2; Mo7e cells stimulated with human recombinant SCF, 48 hours; 1% FBS.
With `Cc1ccc(-c2noc(-c3ccccn3)n2)cc1NC(=O)c1cnc2ccccn12` [F42, N-{2-methyl-5-[5-(pyridin-2-yl)-1,2,4-oxadiazol-3-yl]phenyl}imidazo[1,2-a]pyridine-3-carboxamide], the concentration for half-maximal inhibition (IC50) is 105 nM.

Take `COc1cccc(F)c1-c1noc(-c2ccc(C)c(NC(=O)c3cnc4ccccn34)c2)n1` [F40, N-{5-[3-(2-fluoro-6-methoxyphenyl)-1,2,4-oxadiazol-5-yl]-2-methylphenyl}imidazo[1,2-a]pyridine-3-carboxamide]: the IC50 was 596 nM.

On to `Cc1ccc(-c2nc(-c3ccc(OC(F)(F)F)cc3)no2)cc1NC(=O)c1cnc2ccccn12` [F72], for which the IC50 was more than 10000 nM.

On to `Cc1ccc(-c2noc(CCc3nccn3C)n2)cc1NC(=O)c1cnc2ccccn12` [F56, N-(2-methyl-5-{5-[2-(1-methyl-1H-imidazol-2-yl)ethyl]-1,2,4-oxadiazol-3-yl}phenyl)imidazo[1,2-a]pyridine-3-carboxamide], for which the IC50 was 340 nM.

In the case of `Cc1ccc(-c2noc(-c3cccc(N4CCN(C)CC4)c3)n2)cc1NC(=O)c1cnc2ccccn12` [F53, N-(2-methyl-5-{5-[3-(4-methylpiperazin-1-yl)phenyl]-1,2,4-oxadiazol-3-yl}phenyl)imidazo[1,2-a]pyridine-3-carboxamide], the IC50 worked out at 101 nM.

For the molecule `Cc1ccc(-c2noc(CCc3nn[nH]n3)n2)cc1NC(=O)c1cnc2ccccn12` [F67], the IC50 was more than 10000 nM.

With `Cc1ccc(Nc2noc(-c3cccnn3)n2)cc1NC(=O)c1cnc2ccccn12` [F64, N-(2-methyl-5-{[5-(pyridazin-3-yl)-1,2,4-oxadiazol-3-yl]amino}phenyl)imidazo[1,2-a]pyridine-3-carboxamide], the IC50 came to 115 nM.

As for `Cc1ccc(-c2noc(Cn3ccnc3)n2)cc1NC(=O)c1cnc2ccccn12` [F61, N-{5-[5-(1H-imidazol-1-ylmethyl)-1,2,4-oxadiazol-3-yl]-2-methylphenyl}imidazo[1,2-a]pyridine-3-carboxamide], the IC50 was 280 nM.

Consider `Cc1ccc(-c2noc(Cn3cncn3)n2)cc1NC(=O)c1cnc2ccccn12` [F63, N-{2-methyl-5-[5-(1H-1,2,4-triazol-1-ylmethyl)-1,2,4-oxadiazol-3-yl]phenyl}imidazo[1,2-a]pyridine-3-carboxamide], for which the IC50 was 269 nM.

For `Cc1ccc(-c2noc(-c3ccccc3N3CCN(C)CC3)n2)cc1NC(=O)c1cnc2ccccn12` [F52, N-(2-methyl-5-{5-[2-(4-methylpiperazin-1-yl)phenyl]-1,2,4-oxadiazol-3-yl}phenyl)imidazo[1,2-a]pyridine-3-carboxamide], the IC50 worked out at 433 nM.

For `Cc1ccc(-c2nc(-c3ccc(C(F)(F)F)cc3)no2)cc1NC(=O)c1cnc2ccccn12` [F31, N-(2-methyl-5-{3-[4-(trifluoromethyl)phenyl]-1,2,4-oxadiazol-5-yl}phenyl)imidazo[1,2-a]pyridine-3-carboxamide], the IC50 was determined as 1040 nM.

As for `Cc1ccc(-c2nc(-c3ccccc3)no2)cc1NC(=O)c1cnc2ccccn12` [F46, N-[2-methyl-5-(3-phenyl-1,2,4-oxadiazol-5-yl)phenyl]imidazo[1,2-a]pyridine-3-carboxamide], the IC50 was 101 nM.

Consider `Cc1ccc(-c2noc(-c3ccc(N4CCOCC4)cc3)n2)cc1NC(=O)c1cnc2ccccn12` [F65, N-(2-methyl-5-{5-[4-(morpholin-4-yl)phenyl]-1,2,4-oxadiazol-3-yl}phenyl)imidazo[1,2-a]pyridine-3-carboxamide], for which the IC50 was determined as 1080 nM.

The same test, now with this note: Table 2; Mo7e cells stimulated with human recombinant SCF, 48 hours; 20% FBS instead of 1% FBS (values marked *).
Turning to `Cc1ccc(-c2nc(-c3cccnc3Cl)no2)cc1NC(=O)c1cnc2ccccn12` [F44, N-{5-[3-(2-chloropyridin-3-yl)-1,2,4-oxadiazol-5-yl]-2-methylphenyl}imidazo[1,2-a]pyridine-3-carboxamide], the IC50 turned out to be 236 nM.

For the molecule `Cc1ccc(-c2nc(-c3ccc(C(F)(F)F)cn3)no2)cc1NC(=O)c1cnc2ccccn12` [F30, N-(2-methyl-5-{3-[5-(trifluoromethyl)pyridin-2-yl]-1,2,4-oxadiazol-5-yl}phenyl)imidazo[1,2-a]pyridine-3-carboxamide], the IC50 was found to be 359 nM.

For the molecule `Cc1ccc(-c2noc(-c3cccc(N4CCOCC4)c3)n2)cc1NC(=O)c1cnc2ccccn12` [F55, N-(2-methyl-5-{5-[3-(morpholin-4-yl)phenyl]-1,2,4-oxadiazol-3-yl}phenyl)imidazo[1,2-a]pyridine-3-carboxamide], the concentration for half-maximal inhibition (IC50) turned out to be 330 nM.

As for `Cc1ccc(-c2nc(-c3c(Cl)cccc3Cl)no2)cc1NC(=O)c1cnc2ccccn12` [F26, N-{5-[3-(2,6-dichlorophenyl)-1,2,4-oxadiazol-5-yl]-2-methylphenyl}imidazo[1,2-a]pyridine-3-carboxamide], the IC50 was found to be 845 nM.

In the case of `COc1ccnc(-c2noc(-c3ccc(C)c(NC(=O)c4cnc5ccccn45)c3)n2)c1` [F33, N-{5-[3-(4-methoxypyridin-2-yl)-1,2,4-oxadiazol-5-yl]-2-methylphenyl}imidazo[1,2-a]pyridine-3-carboxamide], the IC50 came to 265 nM.

With `Cc1ccc(-c2nc(Cc3ccccc3OC(F)(F)F)no2)cc1NC(=O)c1cnc2ccccn12` [F43, N-[2-methyl-5-(3-{[2-(trifluoromethoxy)phenyl]methyl}-1,2,4-oxadiazol-5-yl)phenyl]imidazo[1,2-a]pyridine-3-carboxamide], the IC50 was determined as 289 nM.

In the case of `Cc1ccc(-c2nc(-c3cccc(F)c3)no2)cc1NC(=O)c1cnc2ccccn12` [F36, N-{5-[3-(3-fluorophenyl)-1,2,4-oxadiazol-5-yl]-2-methylphenyl}imidazo[1,2-a]pyridine-3-carboxamide], the IC50 is 173 nM.

The values are drawn from patent US20150051206A1, “COMPOUNDS AND COMPOSITIONS AS C-KIT KINASE INHIBITORS” (IRM LLC, priority 2011, published 2015).
